Data from patent US8404287B2, “Use of Fructus schisandrae and extracts thereof in preventing and decreasing toxic and side effects of antineoplastic drugs” (priority 2005, dated 2013).
Like-named read-outs stand apart in the source and are kept apart here.

What was measured:
[1] = test system: left ventricular myocardium matrix metalloproteinase (MMP-2); assay: Left ventricular myocardium MMP-2 activity, Schisandrin B (Example 7); type: in vivo, mouse
Protocol: The experimental method was carried out as those described in Example 2 (1.4).

[2] = test system: mice with acute toxicity induced by Doxorubicin; assay: Survival rate of mice with acute toxicity induced by Doxorubicin, Schisandrin B (Example 7); type: in vivo, mouse
Protocol: Group of Doxorubicin: 42 mice were dosed intragastrically with normal saline at the 1st-3rd day of the experiment, once a day and each time with 20 ml/kg. At the 3rd day, the mice were injected into their abdominal cavities with Doxorubicin of 25 mg/kg.
At the 3rd day, the mice were injected into their abdominal cavities with 25 mg/kg of Doxorubicin 0.5 hours after drench.

[3] = test system: mice with myocardial damage induced by Doxorubicin; assay: Serum myocardium enzymes (CK, CK-MB, LDH, GOT) after Doxorubicin, Schisandrin B (Example 7)
Protocol: CK, CK-MB, LDH and GOT were determined by automatic biochemistry analyzer.
Control group: 24 mice were dosed intragastrically with normal saline at the 1st-3rd day of the experiment, once a day and each time with 20 ml/kg.
Group of Schisandrin B (SchB group): 24 mice were dosed intragastrically with SchB at the 1st-3rd day of the experiment, once a day and each time with 100 mg/kg.
Group of Doxorubicin: 42 mice were dosed intragastrically with normal saline at the 1st-3rd day of the experiment, once a day and each time with 20 ml/kg.
At the 5th day (48 hours after injection of Doxorubicin into abdominal cavity), blood were taken from 6 mice of each group. The serum was separated by regular separation. CK, CK-MB, LDH and GOT were determined by automatic biochemistry analyzer.

ICR mice [4] = settings: antineoplastic agent ip once every two days x7 (Methotrexate 2, Cisplatin 2, 5-fluorouracil 30, Cytoxan 30, Vincristine 0.3 mg/kg), alone or within two hours after lignan 100 mg/kg ig
Description: The mice were divided randomly as following, 6 mice per group.

ICR mice [5] = settings: antineoplastic agent ip once every two days x7 (Methotrexate 2, Cisplatin 2, 5-fluorouracil 30, Cytoxan 30, Vincristine 0.3, Doxorubicin 4 mg/kg), alone or within 2 h after extract 400 mg/kg ig
Description: The mice were grouped randomly as below, 6 mice per group.

[6] = test system: mice with myocardial damage induced by Doxorubicin; assay: Serum myocardium enzymes (CK, CK-MB, LDH, GOT) after Doxorubicin, ethanol extract (Example 2); type: in vivo, mouse; settings: Dox group: Doxorubicin 25 mg/kg ip at 3rd day; vs control group and X group (P<0.05); 48 h after injection
Protocol: Ethanol extract of Fructus schisandrae prepared from Example 1 was dissolved in 0.5% Poloxamer. CK (creatine kinase), CK-MB (creatine kinase isozyme), LDH (lactic dehydrogenase) and GOT (glutamic-oxalocetic transaminase) were detected by automatic biochemistry analyzer.
The serum was separated by regular separation and frozen at −80° C.

ICR mice [7] = settings: Doxorubicin alone or in combination with dibenzocyclooctadiene lignans
Protocol: Doxorubicin Hydrochloride Injection was obtained from Italy pharmacia Co. Six Dibenzocyclooctadiene lignans were obtained from National Institute for the Verification of Pharmaceutical and Biological Products (Product No.: 110765-200407), which were dissolved in 0.5% Poloxamer. Female ICR mice with a body weight of 25-30 g were obtained from Shanghai Experimental Animal Center, which were grouped randomly into 4 groups, 10 mice per group.
Group of Doxorubicin (Dox group): 10 mice were injected into their abdominal cavities with 2 mg/kg of Doxorubicin once every two days, consecutively for 7 times.

[8] = test system: mice with acute toxicity induced by Doxorubicin; assay: Survival rate of mice with acute toxicity induced by Doxorubicin, ethanol extract (Example 2); type: in vivo, mouse
Protocol: Group of Doxorubicin (the Dox group): 42 mice were dosed intragastrically with normal saline in an amount of 20 ml/kg each time at the 1st-3rd day of the experiment, once a day. At the 3rd day, the mice were injected with Doxorubicin of 25 mg/kg into their abdominal cavities.
Group 1 of Doxorubicin plus the extract of Fructus schisandrae (group 1 of Dox +X): 24 mice were dosed intragastrically with the extract of Fructus schisandrae in an amount of 400 mg/kg each time at the 1st-3rd day of the experiment, once a day. At the 3rd day, the mice were injected with 25 mg/kg of Doxorubicin into their abdominal cavities 0.5 hours after drench.
Group 2 of Doxorubicin plus the extract of Fructus schisandrae (group 2 of Dox +X): 24 mice were dosed intragastrically with the extract of Fructus schisandrae in an amount of 200 mg/kg each time at the 1st-3rd day of the experiment, once a day. At the 3rd day, the mice were injected with 25 mg/kg of Doxorubicin into their abdominal cavities 0.5 hours after drench.

ICR mice [9] = assay: Apparent condition of mice, ethanol extract and Doxorubicin (Example 2); type: in vivo, mouse; settings: Doxorubicin alone or with extract ig 3 times

COc1cc2c(c(OC)c1OC)-c1c(cc3c(c1OC)OCO3)CC(C)C(C)C2 (stereo not shown) [Schisandrin B]
increase of mouse left ventricular myocardium MMP-2 activity induced by Doxorubicin ([1]; FIG. 14): inhibit the increase
left ventricular myocardium MMP-2 activity ([1]; Sch B group: 100 mg/kg ig days 1-3, no Doxorubicin): No left ventricular myocardium matrix metalloproteinase (MMP-2) activity
death of mouse induced by Doxorubicin ([2]; FIG. 15): inhibit the death
increase of mouse serum creatine kinase (CK) induced by Doxorubicin ([3]; FIG. 10): inhibit the increase
increase of mouse serum creatine kinase isozyme (CK-MB) induced by Doxorubicin ([3]; FIG. 11): inhibit the increase
increase of mouse serum glutamic-oxalocetic transaminase (GOT) induced by Doxorubicin ([3]; FIG. 12): inhibit the increase
increase of mouse serum lactic dehydrogenase (LDH) induced by Doxorubicin ([3]; FIG. 13): inhibit the increase

O=P1(N(CCCl)CCCl)NCCCO1 (stereo not shown) [Cytoxan]
Heart weight (ICR mice [4]): 162.6 ± 31.4 mg
Kidney weight (ICR mice [4]): 396.3 ± 54.7 mg
Liver weight (ICR mice [4]): 1.88 ± 0.36 g
Spleen weight (ICR mice [4]): 113.5 ± 24.7 mg
Thymus weight (ICR mice [4]): 49.8 ± 12.4 mg
Heart weight (ICR mice [5]): 162.6 ± 31.4 mg
Kidney weight (ICR mice [5]): 396.3 ± 54.7 mg
Liver weight (ICR mice [5]): 1.88 ± 0.36 g
Spleen weight (ICR mice [5]): 113.5 ± 24.7 mg
Thymus weight (ICR mice [5]): 49.8 ± 12.4 mg

COc1cccc2c1C(=O)c1c(O)c3c(c(O)c1C2=O)C[C@@](O)(C(=O)CO)C[C@@H]3O[C@H]1C[C@H](N)[C@H](O)[C@H](C)O1 [Doxorubicin]
survival rate on the 7th day ([2]; Doxorubicin 25 mg/kg ip alone): 0
day on which death of mice occurred ([2]; Doxorubicin 25 mg/kg ip, alone or with Sch B 100, 50 or 25 mg/kg ig days 1-3): 4 days
serum myocardium enzyme spectrum indexes (CK, CK-MB, LDH, GOT) [6]: significantly higher
apparent conditions of mice (ICR mice [7]): in bad conditions after 7-8 days, manifested as asthenia, listlessness and hypotrichosis
survival rate on the 7th day ([8]; Dox group: Doxorubicin 25 mg/kg ip alone): 3.7%
day on which death of mice occurred ([8]; Doxorubicin 25 mg/kg ip, alone or with extract 400 or 200 mg/kg ig days 1-3): 5 days
4 serum enzyme indexes (CK, CK-MB, LDH, GOT) ([3]; Doxorubicin 25 mg/kg ip alone, vs control group and Sch B group (P<0.05), 48 h after injection): significantly higher
apparent condition of mice (ICR mice [9]): in bad conditions, manifested as asthenia, listlessness, hypotrichosis
